Source: patent US9750742B2, “Small molecular inhibitors of RAD51 recombinase and methods thereof” (Drexel University, priority 2011, dated 2017)

Assays:
MEF cells = experiment: Clonogenic survival assay, MEF; format: cell-based, mouse; conditions: AZD2281 1 μM versus MMS only
Procedure: Briefly, MEF cells were trypsinized and the appropriate number of cells was replated on 10 cm tissue culture dishes. […] Cells were fixed and stained using staining solution (0.05% crystal violet, 50% methanol in PBS); colonies were counted using an AlphaImager 3400 (Alpha Innotech Inc.). The percent of survival was determined as described (Hall & Giccia, 2005, “Radiobiology for the Radiologist”, 6th Ed., Philadelphia, Pa.: Lippincott Williams & Wilkins, pp. 30-45). The percent of survival obtained from untreated cells was normalized to 100% survival.

RecA = biological target: T1, RecA (Escherichia coli, UniProt P0A7G6); experiment: biochemical; design: species or system E. coli; conditions: for IC50: IC50 (RecA), RecA 1 μM, ssDNA 3 μM, dsDNA 50 μM; for inhibition of RecA DNA strand exchange, in words: up to 100 μM
T1 construct: purchased USB Inc. (Cleveland, Ohio)
T1 sequence (P0A7G6 whole entry): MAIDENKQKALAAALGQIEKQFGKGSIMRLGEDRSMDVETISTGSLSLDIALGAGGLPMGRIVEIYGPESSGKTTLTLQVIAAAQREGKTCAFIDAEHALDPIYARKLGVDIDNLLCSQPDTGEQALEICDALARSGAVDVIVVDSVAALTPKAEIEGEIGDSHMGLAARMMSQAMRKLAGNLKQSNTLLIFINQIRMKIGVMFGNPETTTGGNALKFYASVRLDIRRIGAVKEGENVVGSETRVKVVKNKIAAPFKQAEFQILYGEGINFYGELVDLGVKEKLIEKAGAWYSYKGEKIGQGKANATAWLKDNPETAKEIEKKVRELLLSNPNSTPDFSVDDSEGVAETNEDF
Procedure: (Mazin et al., 2000, EMBO J. 19:1148-56). When indicated, chemical compounds in specified concentrations were added and incubation was continued for 30 min at 37° C. D-loop formation was initiated by addition of supercoiled pUC19 dsDNA (50 μM, nt) and carried out for 3 min at 37° C. The DNA products were deproteinized and analyzed as described above for the Rad51-promoted reaction.
(§1) IC50 values were calculated using GraphPad Prism V5.0 software and the sigmoidal dose-response function. The data were obtained from three independent repeats of experiments.

RAD51 = biological target: T2, RAD51 (Homo sapiens, UniProt Q06609); experiment: D-loop assay for RAD51; format: biochemical; conditions: for inhibitory effect on D-loop formation by RAD51, in words: B02 derivatives 50 μM; for IC50: RAD51 1 μM, ssDNA 3 μM, dsDNA 50 μM, compound added after filament formation
T2 construct: made in house
T2 sequence (Q06609 1-339): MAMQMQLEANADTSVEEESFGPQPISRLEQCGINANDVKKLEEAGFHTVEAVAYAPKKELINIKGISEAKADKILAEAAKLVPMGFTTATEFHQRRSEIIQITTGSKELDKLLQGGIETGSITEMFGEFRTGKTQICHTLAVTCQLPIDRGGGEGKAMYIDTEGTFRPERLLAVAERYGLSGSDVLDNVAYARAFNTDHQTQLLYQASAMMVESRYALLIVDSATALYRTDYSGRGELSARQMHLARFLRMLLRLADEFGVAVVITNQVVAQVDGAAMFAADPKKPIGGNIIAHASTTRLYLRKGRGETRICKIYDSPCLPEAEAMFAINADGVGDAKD
Procedure: When indicated, chemical compounds in question were added in specified concentrations and incubation was continued for 30 min at 37° C. D-loop formation was initiated by addition of supercoiled pUC19 dsDNA (50 μM, nt) and continued for 15 min. Reactions were stopped by addition of SDS to 1% (w/v) and proteinase K to 880 μg ml^−1 followed by incubation for 15 min at 37° C. […] The yield of joint molecules was expressed as a percentage of the total plasmid DNA.
The reaction was deproteinized and analyzed as described above.
as §1

| SMILES | sensitivity to MMS (MEF cells) | IC50 (RecA) [µM] | inhibition of RecA DNA strand exchange, in words (RecA) | inhibitory effect on D-loop formation by RAD51, in words (RAD51) | IC50 (RAD51) [µM] |
| --- | --- | --- | --- | --- | --- |
| O=C(c1cc(Cc2n[nH]c(=O)c3ccccc23)ccc1F)N1CCN(C(=O)C2CC2)CC1 [AZD2281, 4-[(3-[(4-cyclopropylcarbonyl)piperazin-4-yl]carbonyl)-4-fluorophenyl]methyl(2H)phthalazin-1-one, reference compound] | more sensitive | – | – | – | – |
| CCn1c(/C=C/c2cccnc2)nc2ccccc2c1=O [Compound C3a, (E)-3-ethyl-2-(2-(pyridin-3-yl)vinyl)quinazolin-4(3H)-one] | – | > 100 | do not inhibit | retain the inhibitory effect | 15.3 |
| Cc1cccc(-n2c(/C=C/c3cccnc3)nc3ccccc3c2=O)c1 [Compound C3b, (E)-2-(2-(pyridin-3-yl)vinyl)-3-(m-tolyl)quinazolin-4(3H)-one] | – | > 100 | do not inhibit | retain the inhibitory effect | 27.3 |
| Cc1ccc(-n2c(C=Cc3cccnc3)nc3ccccc3c2=O)cc1 [Compound C3c] | – | – | – | eliminates the inhibition | – |
| O=c1c2ccccc2nc(C=Cc2cccnc2)n1-c1ccccc1 [Compound C3d] | – | – | – | eliminates the inhibition | – |
| Cn1c(C=Cc2cccnc2)nc2ccccc2c1=O [Compound C3e] | – | – | – | eliminates the inhibition | – |
